Test results reported in patent US12479940B2, “Amide compound, polymerizable composition, cured material, and method of manufacturing cured material” (ADEKA CORPORATION, priority 2019, dated 2025).

Excerpt: As the polymerization initiator (the water-soluble polymerization initiator), N,N-bis(2-hydroxyethyl)butane-1-aminium=phenyl(2,4,6-trimethylbenzoyl)phosphinate represented by A3, 1-[4-(2-hydroxyethoxy)phenyl]-2-hydroxy-2-methyl-1-propan-1-one represented by A32, and N,N-bis(2-hydroxyethyl)butane-1-aminium=9-oxo-9H thioxanthene-4-carboxylate represented by A57 were used.

Row | SMILES | solubility in water
1 | Cc1cc(C)c(C(=O)P(=O)(O)c2ccccc2)c(C)c1 [A3, N,N-bis(2-hydroxyethyl)butane-1-aminium=phenyl(2,4,6-trimethylbenzoyl)phosphinate] | ≥ 1 mass %
2 | CC(C)(O)C(=O)c1ccc(OCCO)cc1 [A32, 1-[4-(2-hydroxyethoxy)phenyl]-2-hydroxy-2-methyl-1-propan-1-one] | ≥ 1 mass %
